# Measurements from ChEMBL document CHEMBL1201862, “PubChem BioAssay data set” (2004).
#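 Five compound concentrations were applied to cells in 96-well plates for 48 hours; endpoints were derived by simple linear interpolation of the resulting dose-response curve. GI50: concentration for 50% inhibition of growth.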 The source made the active and inactive calls. Cut-off read from the data, not from the text of the source: active = GI50 up to about 1.1 µM and inactive = higher.
# Legend:
# Assay in all cases: growth of human tumour cells (NCI), 48 h
# T47D = tested on: T47D
# NCI/ADR-RES = tested on: NCI/ADR-RES
# TK-10 = tested on: TK-10
# SR = tested on: SR
# SK-MEL-5 = tested on: SK-MEL-5
# MCF7 = tested on: MCF7
# ACHN = tested on: ACHN
# NCI-H522 = tested on: NCI-H522
# OVCAR-5 = tested on: OVCAR-5
# HCC 2998 = tested on: HCC 2998
# OVCAR-8 = tested on: OVCAR-8
# UO-31 = tested on: UO-31
# SF-295 = tested on: SF-295
# CCRF-CEM = tested on: CCRF-CEM
# OVCAR-4 = tested on: OVCAR-4
# SNB-75 = tested on: SNB-75
# A549 = tested on: A549
# HOP-62 = tested on: HOP-62
# HOP-92 = tested on: HOP-92
SMILES,GI50 (T47D),GI50 (NCI/ADR-RES),GI50 (TK-10),GI50 (SR),GI50 (SK-MEL-5),GI50 (MCF7),GI50 (ACHN),GI50 (NCI-H522),GI50 (OVCAR-5),GI50 (HCC 2998),GI50 (OVCAR-8),GI50 (UO-31),GI50 (SF-295),GI50 (CCRF-CEM),GI50 (OVCAR-4),GI50 (SNB-75),GI50 (A549),GI50 (HOP-62),GI50 (HOP-92)
CCOC(=O)C12OC(CCC1=O)C(C(=O)OC)=C2C(=O)OC (configuration not stated),> 10 µM (inactive),> 10 µM (inactive),> 10 µM (inactive),> 10 µM (inactive),> 10 µM (inactive),> 10 µM (inactive),> 10 µM (inactive),> 10 µM (inactive),> 10 µM (inactive),> 10 µM (inactive),> 10 µM (inactive),> 10 µM (inactive),> 10 µM (inactive),> 10 µM (inactive),> 10 µM (inactive),2.26 µM (inactive),> 10 µM (inactive),> 10 µM (inactive),–
OC1CN2Cc3cc4c(cc3[C@]13C=C[C@@H](O)CC23)OCO4 (some centres not stated),4.82 µM (inactive),54.3 µM (inactive),23.2 µM (inactive),12.4 µM (inactive),22.9 µM (inactive),16.4 µM (inactive),7.85 µM (inactive),27.3 µM (inactive),23.9 µM (inactive),–,29.2 µM (inactive),33.6 µM (inactive),33.6 µM (inactive),8.57 µM (inactive),19.8 µM (inactive),–,19.5 µM (inactive),41.1 µM (inactive),21.3 µM (inactive)
O=C(O)c1cc(-c2ccc3c(O)c(O)ccc3c2)ccc1O,> 75 µM (inactive),33.6 µM (inactive),> 75 µM (inactive),18.1 µM (inactive),34.2 µM (inactive),13.4 µM (inactive),> 75 µM (inactive),38.5 µM (inactive),12.6 µM (inactive),> 75 µM (inactive),23.1 µM (inactive),> 75 µM (inactive),16.1 µM (inactive),12.3 µM (inactive),12.9 µM (inactive),> 75 µM (inactive),66.4 µM (inactive),> 75 µM (inactive),–
O[C@@]12Cc3c([nH]c4ccccc34)[C@@H]3Oc4c(-c5ccccc5)ccc5c4[C@@]31CCN(CC1CC1)[C@@H]2C5,2 µM (inactive),2.51 µM (inactive),–,2.79 µM (inactive),1.83 µM (inactive),1.83 µM (inactive),1.44 µM (inactive),1.77 µM (inactive),4.11 µM (inactive),1.57 µM (inactive),2.22 µM (inactive),1.74 µM (inactive),1.69 µM (inactive),2.92 µM (inactive),2.71 µM (inactive),–,1.89 µM (inactive),1.51 µM (inactive),5.19 µM (inactive)
CCn1c(SCC(=O)NNC(=S)Nc2ccc(C)cc2)nc2ccccc2c1=O,65.5 µM (inactive),> 100 µM (inactive),85.5 µM (inactive),40.6 µM (inactive),> 100 µM (inactive),> 100 µM (inactive),> 100 µM (inactive),> 100 µM (inactive),> 100 µM (inactive),> 100 µM (inactive),> 100 µM (inactive),22 µM (inactive),> 100 µM (inactive),> 100 µM (inactive),78.9 µM (inactive),> 100 µM (inactive),> 100 µM (inactive),> 100 µM (inactive),–
O=C1/C(=C/Cc2ccco2)N=C(c2ccccc2)N1c1nc2c(Cl)cc(Cl)cc2s1,16.8 µM (inactive),24.3 µM (inactive),42.7 µM (inactive),14.9 µM (inactive),22.5 µM (inactive),25.6 µM (inactive),24.6 µM (inactive),–,52.2 µM (inactive),31.7 µM (inactive),36 µM (inactive),26.2 µM (inactive),32.1 µM (inactive),17.9 µM (inactive),21.3 µM (inactive),–,26.4 µM (inactive),24.8 µM (inactive),27.8 µM (inactive)
CCCCNC(=S)N/C=C1\C(=O)Nc2ccccc2C1=O,> 10 µM (inactive),> 10 µM (inactive),> 10 µM (inactive),> 10 µM (inactive),–,> 10 µM (inactive),> 10 µM (inactive),–,> 10 µM (inactive),> 10 µM (inactive),> 10 µM (inactive),> 10 µM (inactive),> 10 µM (inactive),> 10 µM (inactive),> 10 µM (inactive),–,> 10 µM (inactive),> 10 µM (inactive),> 10 µM (inactive)
CON(C)C(=O)[C@H]1C[C@@]1(C)CO,> 100 µM (inactive),> 100 µM (inactive),> 100 µM (inactive),> 100 µM (inactive),> 100 µM (inactive),> 100 µM (inactive),> 100 µM (inactive),–,> 100 µM (inactive),> 100 µM (inactive),> 100 µM (inactive),> 100 µM (inactive),> 100 µM (inactive),> 100 µM (inactive),> 100 µM (inactive),> 100 µM (inactive),> 100 µM (inactive),> 100 µM (inactive),> 100 µM (inactive)
CON(C)C(=O)C(C)NC(=O)OC(C)(C)C (configuration not stated),> 100 µM (inactive),> 100 µM (inactive),> 100 µM (inactive),> 100 µM (inactive),> 100 µM (inactive),> 100 µM (inactive),> 100 µM (inactive),–,> 100 µM (inactive),> 100 µM (inactive),> 100 µM (inactive),> 100 µM (inactive),> 100 µM (inactive),> 100 µM (inactive),–,> 100 µM (inactive),> 100 µM (inactive),> 100 µM (inactive),> 100 µM (inactive)
CCOC(=O)c1[nH]c2cccc3c2c1CC(Br)C3=O (configuration not stated),15.9 µM (inactive),15.3 µM (inactive),14.6 µM (inactive),2.14 µM (inactive),18.5 µM (inactive),22.5 µM (inactive),6.98 µM (inactive),–,19 µM (inactive),14.7 µM (inactive),16.6 µM (inactive),6.21 µM (inactive),17.2 µM (inactive),3.83 µM (inactive),–,–,17.3 µM (inactive),19 µM (inactive),16.7 µM (inactive)
O=C1c2ccccc2-c2[nH]c3cn[nH]c(=O)c3c21,> 100 µM (inactive),> 100 µM (inactive),> 100 µM (inactive),45 µM (inactive),> 100 µM (inactive),43.9 µM (inactive),85.9 µM (inactive),13.4 µM (inactive),> 100 µM (inactive),–,> 100 µM (inactive),23.8 µM (inactive),> 100 µM (inactive),> 100 µM (inactive),> 100 µM (inactive),42.6 µM (inactive),> 100 µM (inactive),82 µM (inactive),16.4 µM (inactive)
Cc1nc2ccccc2n1Cc1nnc(-c2ccccc2)o1,57.8 µM (inactive),> 100 µM (inactive),> 100 µM (inactive),43.6 µM (inactive),55 µM (inactive),63.1 µM (inactive),> 100 µM (inactive),> 100 µM (inactive),> 100 µM (inactive),> 100 µM (inactive),> 100 µM (inactive),> 100 µM (inactive),> 100 µM (inactive),> 100 µM (inactive),–,46.3 µM (inactive),52.4 µM (inactive),> 100 µM (inactive),> 100 µM (inactive)
O=c1oc2ccccc2c2c1Sc1ccccc1N2,0.897 µM (active),> 100 µM (inactive),> 100 µM (inactive),53.6 µM (inactive),48.9 µM (inactive),71.3 µM (inactive),> 100 µM (inactive),> 100 µM (inactive),> 100 µM (inactive),53 µM (inactive),> 100 µM (inactive),> 100 µM (inactive),> 100 µM (inactive),75.9 µM (inactive),22.8 µM (inactive),–,> 10 µM (inactive),> 100 µM (inactive),12.7 µM (inactive)
O=C(O)c1nc2ccccc2nc1NCc1ccc(F)cc1,40.9 µM (inactive),30.2 µM (inactive),> 100 µM (inactive),42.4 µM (inactive),35.8 µM (inactive),86.5 µM (inactive),–,48.9 µM (inactive),> 100 µM (inactive),99.1 µM (inactive),53.2 µM (inactive),45.3 µM (inactive),38 µM (inactive),50.5 µM (inactive),–,> 100 µM (inactive),57.7 µM (inactive),> 100 µM (inactive),95.1 µM (inactive)
CN(C)CCCNc1cc(O)c2c(c1O)C(=O)c1ccccc1C2=O,19 µM (inactive),3.4 µM (inactive),10.2 µM (inactive),3.01 µM (inactive),13.2 µM (inactive),11.6 µM (inactive),12.9 µM (inactive),21.8 µM (inactive),18.9 µM (inactive),–,12.6 µM (inactive),1.69 µM (inactive),13.1 µM (inactive),–,12.1 µM (inactive),–,10.9 µM (inactive),11.1 µM (inactive),12.3 µM (inactive)
COc1c(Br)cc2c(c1OC)C(Br)CCC(Br)(Br)C2=O (configuration not stated),1.85 µM (inactive),0.587 µM (active),3.17 µM (inactive),0.0368 µM (active),0.653 µM (active),0.74 µM (active),2.29 µM (inactive),0.393 µM (active),4.92 µM (inactive),5.08 µM (inactive),0.378 µM (active),1.37 µM (inactive),2.52 µM (inactive),–,1.65 µM (inactive),9.02 µM (inactive),4.34 µM (inactive),2.19 µM (inactive),3.3 µM (inactive)
